Tests used:
SHIP-1 = SHIP-1 gene and protein expression in tumors of KC-HPC mice; assay type: in vivo, mouse; details: API 25 mg/kg IP three times per week for 17 days, vs vehicle
Experimental: To build on these findings, the inventors then used a novel pancreatic cancer cell line, UN-KC-6141, that resembles human PC due to its expression of a mutated Kras and generated mice harboring these tumor cells, called KC-HPC mice. Such mice were treated with API at a dose of 25 mg/kg (IP) three times per week for 17 days. The inventors examined if API also targets miR-155 and regulates SHIP-1 in the tumors from KC-HPC mouse model.
All female C57BL/6 mice (6-8 weeks of age) described in this study were purchased from Envigo (Indianapolis, IN, USA) and were acclimatize for one week in a pathogen-free animal facility (University of South Florida (USF) vivarium) before injections with PC cells. To generate heterotopic pancreatic cancer (HPC) models, mice were subcutaneously injected with 1.5×10^5 murine Panc02 (HPC mice) or 5×10^6 murine UN-KC-6141 cells (KC-HPC mice), in sterile 1× phosphate buffer saline (PBS), in the lower ventral abdomen, while control (CTRL) mice received sterile 1×PBS. […]
Isolation of total RNA from digested pancreatic tumors and BM cells was performed using a RNeasy Mini Kit (Qiagen), according to the manufacturer's instructions. RT-PCR of quantified and normalized total RNA was performed using a High-Capacity cDNA RT Kit with an RNase Inhibitor (Applied Biosystems), according to the manufacturer's instructions. […]

[1] = test system: CD8+ T cells (CD3+CD8+CD4−); experiment: Flow cytometry of intra-tumoral CD8+ T cells and CD40L in KC-HPC mice; assay type: in vivo, mouse; details: API-treated vs vehicle-treated KC-HPC mice
Experimental: The inventors then assessed the expression of CD40 (a T cell co-stimulation marker) on M1 TAM (gated as MHC-II^+ and CD206) within the tumor from KC-HPC vs. KC-HPC-API mice. […] The femur and tibia were cut at the pelvic-hip joint and muscle was removed. The femurs and tibias were cut at the ends and flushed with a 30-gauge needle and 10 cc syringe filled with completed RPMI media until bone was white onto a petri dish. Pelleted bone marrow (BM) cells were treated with Red Blood Cell (RBC) lysis buffer (eBioscience, Waltham, MA, USA), according to the manufacturer's instructions, and then filtered through a […] nylon mesh cell strainer in 1×PBS. All pancreatic tumors were manually cut into ˜1-2 mm^3 fragments with a sterile razor blade and then enzymatically digested with Collagenase, type IV (Sigma-Aldrich), DNase, type IV (Sigma-Aldrich) and Hyaluronidase, Type V (Sigma-Aldrich) in Hank's Balanced Salt Solution for 1 h, spun down and washed as described in previous studies^61. Digested pancreatic tumor samples were treated with RBC lysis buffer and then filtered through a […] nylon mesh cell strainer in 1×PBS. Bone marrow and digested pancreatic tumor single cell suspensions were counted with a hemocytometer and then resuspended in 3% FBS/PBS. BM and digested pancreatic tumor cells (1×10^6) were Fc Blocked (anti-mouse CD16/CD32) and then surface stained for 30 min on ice protected from light with fluorescent anti-mouse antibodies including, CD11b-APC, Ly6C-PE/Cy7, Ly6G-PerCP, F4/80-BV650, MHC—II-BV605, CD206-FITC and CD40-PE/Cy5 along with isotype control antibodies (Biolegend, San Diego, CA, USA) to detect MDSC and macrophage subsets. Digested pancreatic tumor cells (1×10^6) were also Fc Blocked and then surface stained with fluorescent anti-mouse antibodies including CD3-FITC, CD8-PercP/Cy5.5, CD4-APC/Cy7, and CD40L-APC along with isotype control antibodies (Biolegend) to detect CD8^+ T cells. Subsequently, all samples were fixed with 2% paraformaldehyde for 15 min on ice protected from light. […]

SMILES: O=c1cc(-c2ccc(O)cc2)oc2cc(O)cc(O)c12 [API, 40,5,7-Trihydroxyflavone, 5,7-Dihydroxy-2-(4-hydroxyphenyl)-4-benzopyrone]
- SHIP-1 gene expression in tumor (SHIP-1): significantly increased
- SHIP-1 protein expression in tumor (SHIP-1): significantly increased
- CD40L expression on intra-tumoral CD8+ T cells [1]: no significant changes
- intra-tumoral CD8+ T cells (flow cytometric analysis) [1]: significant increase
- intra-tumoral CD8+ T cells absolute cell numbers [1]: significant increase
